{"source": "paper PMC6895141", "about": "“Antimicrobial Efficacy of Indolicidin Against Multi-Drug Resistant Enteroaggregative Escherichia coli in a Galleria mellonella Model” (Frontiers in Microbiology, 2019)", "key": {"[1]": {"test_system": "MDR-EAEC isolate KY941936.1 (MDR 1)", "assay": "In vitro antibiotic susceptibility testing", "assay_type": "cell-based, enteroaggregative Escherichia coli", "design": "key to Antibiotic Susceptibility testing / MIC Values, class symbol: S – Sensitive; R- Resistant", "details": "for Antibiotic Susceptibility testing: CLSI 2018; for MIC: numeric cells; for MIC Values, class symbol: cells printed as S", "source_text": "(§1) The typical EAEC strains, isolated from the fecal samples of human infants with GenBank accession numbers, KY941936.1 (MDR 1); KY941937.1 (MDR 2); and KY941938.1 (MDR 3), available at Division of Veterinary Public Health, Indian Veterinary Research Institute, Bareilly were re-validated as described earlier ([Vijay et al., 2015]) and tested for antibiotic susceptibility ([Clinical and Laboratory Standards Institute [CLSI], 2018]). E. coli ATCC 25922 used as quality control strain was provided by the Department of Veterinary Public Health, College of Veterinary and Animal Sciences, Pookode, India. These bacterial strains were grown on nutrient agar medium at 37°C."}, "[2]": {"test_system": "MDR-EAEC isolate KY941937.1 (MDR 2)", "assay": "In vitro antibiotic susceptibility testing", "assay_type": "cell-based, enteroaggregative Escherichia coli", "design": "key to Antibiotic Susceptibility testing / MIC Values, class symbol: S – Sensitive; R- Resistant", "details": "for Antibiotic Susceptibility testing: CLSI 2018; for MIC: numeric cells; for MIC Values, class symbol: cells printed as S", "source_text": "as §1"}, "[3]": {"test_system": "MDR-EAEC isolate KY941938.1 (MDR 3)", "assay": "In vitro antibiotic susceptibility testing", "assay_type": "cell-based, enteroaggregative Escherichia coli", "design": "key to Antibiotic Susceptibility testing / MIC Values, class symbol: S – Sensitive; R- Resistant", "details": "for Antibiotic Susceptibility testing: CLSI 2018; for MIC: numeric cells; for MIC Values, class symbol: cells printed as S", "source_text": "as §1"}, "MDR-EAEC isolates": {"test_system": "MDR-EAEC isolates", "assay": "In vitro dose- and time-dependent killing kinetics", "assay_type": "cell-based, enteroaggregative Escherichia coli", "details": "Meropenem 10 μg/ml", "protocol": "The in vitro growth kinetics of MDR-EAEC isolates was evaluated by incubating the log-phase bacterial cultures of each MDR-EAEC isolate (ca. 1 × 10^7 CFU/mL) in CA-MH broth with MIC (1X and 2X) concentrations of Indolicidin, in triplicates (Supplementary File S8). The desired bacterial numbers for each MDR-EAEC isolate and Indolicidin were suspended in CA-MH broth as follows: Group I, 10^7 CFU of MDR-EAEC (50 μL) with 1X MIC Indolicidin (50 μL); Group II, 10^7 CFU of MDR- EAEC (50 μL) with MBC Indolicidin (50 μL); Group III, 10^7 CFU of MDR- EAEC (50 μL) with Meropenem (10 μg/ml; 50 μL); Group IV, 10^7 CFU of MDR- EAEC (50 μL) with CA-MH broth (50 μL) and Group V, 10^7 CFU of MDR- EAEC (50 μL) with 4X MIC Indolicidin (50 μL). To enumerate the antibacterial effect of Indolicidin on MDR-EAEC isolates, an aliquot at 10 μL from all the five groups were drawn at 0, 30, 60, 90, 120, 150, 180 min, 24, 48, and 72 h. These aliquots were serially diluted 10-fold in normal saline solution (prepared using 0.90% of sodium chloride, HiMedia Laboratories); the last three dilutions placed on EMB agar plates containing 100 μg of ampicillin ([Miles et al., 1938]) were counted after 24 h of incubation at 37°C, and the bacterial counts were expressed as log10CFU/mL. […]"}, "MDR-EAEC strains": {"test_system": "MDR-EAEC strains", "assay": "Survival of MDR-EAEC infected G. mellonella larvae", "assay_type": "in vivo, Galleria mellonella", "details": "larvae infected with LD50 dose (10^6 CFU) MDR-EAEC cocktail, treated 3 h pi with MIC dose (10 μL); upto 120 h pi; n = 40 larvae per group", "protocol": "In vivo assays were performed using the final instar of G. mellonella larvae that were stored in wood shavings at 15°C in the dark prior to the experiment ([Morgan et al., 2014]). The larvae were kept in a germ-free environment and were provided with ad libitum food during the course of experiment. Initially, LD50 dose of each MDR-EAEC strains was determined in G. mellonella larvae, and the validated LD50 dose was used further in the in vivo studies to evaluate the antibacterial effect of Indolicidin (Supplementary File S9) by injection with a Hamilton syringe (26 gage) via the last right pro-leg.\n(§2) Galleria mellonella larvae (n = 40 larvae per group) were grouped as follows: Group I (infected group), Groups II and III (infection + treatment groups), Group IV (PBS control), and Group V (AMP control). Larvae from groups I to III were infected with cocktail of MDR-EAEC strains (LD50 dose; 10 μL); groups II and III were administered 3 h post-infection (pi) with MIC dose (10 μL) of Indolicidin and Meropenem, respectively; Group IV were injected with sterile PBS whereas, group V was administered with MIC dose of Indolicidin."}, "G. mellonella larvae": {"test_system": "G. mellonella larvae", "assay": "Melanization assay in G. mellonella larvae", "assay_type": "in vivo, Galleria mellonella", "details": "infected larvae treated 3 h pi; absorbance 450 nm of hemolymph, 6 to 96 h pi", "protocol": "as §2\nFor determination of the melanin production, an immune marker, the G. mellonella (n=3 larvae per group) were investigated at an interval of 6 h pi for 24 h, followed by 24 h interval till 96 h. An aliquot of the pooled haemolymph (100 µl) was transferred into 96-well microtiter plate for measuring the optical density (OD) at a wavelength of 450 nm using ELISA plate reader (Thermo Scientific Multiskan GO) with OD values of haemolymph collected from apparently healthy un-inoculated larvae as the background control."}}}
{"molecule": "CC1(C)S[C@@H]2[C@H](NC(=O)[C@H](N)c3ccccc3)C(=O)N2[C@H]1C(=O)O", "note": "[AMP, Ampicillin]", "values": [{"measurement": "Antibiotic Susceptibility testing", "setting": "[1]", "result": "R"}, {"measurement": "MIC", "setting": "[1]; Escherichia coli", "result": "> 240", "unit": "µM"}, {"measurement": "Antibiotic Susceptibility testing", "setting": "[2]", "result": "R"}, {"measurement": "MIC", "setting": "[2]; Escherichia coli", "result": "> 240", "unit": "µM"}, {"measurement": "Antibiotic Susceptibility testing", "setting": "[3]", "result": "R"}, {"measurement": "MIC", "setting": "[3]; Escherichia coli", "result": "> 240", "unit": "µM"}]}
{"molecule": "O=C(O)c1cn(C2CC2)c2cc(N3CCNCC3)c(F)cc2c1=O", "note": "[CIP, Ciprofloxacin]", "values": [{"measurement": "MIC", "setting": "[2]; Escherichia coli", "result": 120, "unit": "µM"}, {"measurement": "MIC", "setting": "[3]; Escherichia coli", "result": 60, "unit": "µM"}]}
{"molecule": "O=C(N[C@H](CO)[C@H](O)c1ccc([N+](=O)[O-])cc1)C(Cl)Cl", "note": "[CL, Chloramphenicol]", "values": [{"measurement": "Antibiotic Susceptibility testing", "setting": "[1]", "result": "S"}, {"measurement": "MIC Values, class symbol", "setting": "[1]", "result": "S"}, {"measurement": "Antibiotic Susceptibility testing", "setting": "[2]", "result": "S"}, {"measurement": "MIC Values, class symbol", "setting": "[2]", "result": "S"}, {"measurement": "Antibiotic Susceptibility testing", "setting": "[3]", "result": "S"}, {"measurement": "MIC Values, class symbol", "setting": "[3]", "result": "S"}]}
{"molecule": "CO/N=C(\\C(=O)N[C@@H]1C(=O)N2C(C(=O)O)=C(CSc3nc(=O)c(=O)[nH]n3C)CS[C@H]12)c1csc(N)n1", "note": "[CTR, Ceftriaxone]", "values": [{"measurement": "Antibiotic Susceptibility testing", "setting": "[1]", "result": "S"}, {"measurement": "MIC Values, class symbol", "setting": "[1]", "result": "S"}, {"measurement": "Antibiotic Susceptibility testing", "setting": "[2]", "result": "R"}, {"measurement": "MIC", "setting": "[2]; Escherichia coli", "result": "> 240", "unit": "µM"}, {"measurement": "Antibiotic Susceptibility testing", "setting": "[3]", "result": "R"}, {"measurement": "MIC", "setting": "[3]; Escherichia coli", "result": "> 240", "unit": "µM"}]}
{"molecule": "CNC(C)C1CCC(N)C(OC2C(N)CC(N)C(OC3OCC(C)(O)C(NC)C3O)C2O)O1", "note": "(centres unmarked) [GEN, Gentamicin]", "values": [{"measurement": "Antibiotic Susceptibility testing", "setting": "[1]", "result": "S"}, {"measurement": "MIC Values, class symbol", "setting": "[1]", "result": "S"}, {"measurement": "Antibiotic Susceptibility testing", "setting": "[2]", "result": "S"}, {"measurement": "MIC Values, class symbol", "setting": "[2]", "result": "S"}, {"measurement": "Antibiotic Susceptibility testing", "setting": "[3]", "result": "S"}, {"measurement": "MIC Values, class symbol", "setting": "[3]", "result": "S"}]}
{"molecule": "C[C@@H](O)[C@H]1C(=O)N2C(C(=O)O)=C(SCCN=CN)C[C@H]12", "note": "[IMI, Imipenem]", "values": [{"measurement": "Antibiotic Susceptibility testing", "setting": "[1]", "result": "S"}, {"measurement": "MIC Values, class symbol", "setting": "[1]", "result": "S"}, {"measurement": "Antibiotic Susceptibility testing", "setting": "[2]", "result": "S"}, {"measurement": "MIC Values, class symbol", "setting": "[2]", "result": "S"}, {"measurement": "Antibiotic Susceptibility testing", "setting": "[3]", "result": "S"}, {"measurement": "MIC Values, class symbol", "setting": "[3]", "result": "S"}]}
{"molecule": "C[C@@H](O)[C@H]1C(=O)N2C(C(=O)O)=C(S[C@@H]3CN[C@H](C(=O)N(C)C)C3)[C@H](C)[C@H]12", "note": "[Meropenem]", "values": [{"measurement": "time to similar inhibition (complete elimination) in time-kill kinetic assay", "setting": "MDR-EAEC isolates", "result": 60, "unit": "min"}, {"measurement": "survival rate", "setting": "MDR-EAEC strains", "result": 85, "unit": "%"}, {"measurement": "melanization", "setting": "G. mellonella larvae", "result": "the melanization was lower at 6 h pi, reached its peak at 18 h pi and thereafter gradually declined"}]}
{"molecule": "Cc1cc(NS(=O)(=O)c2ccc(N)cc2)no1", "note": "[SXT, Sulfamethoxazole]", "values": [{"measurement": "Antibiotic Susceptibility testing", "setting": "[1]", "result": "R"}, {"measurement": "Antibiotic Susceptibility testing", "setting": "[2]", "result": "S"}, {"measurement": "Antibiotic Susceptibility testing", "setting": "[3]", "result": "R"}]}
{"molecule": "CN(C)[C@@H]1C(O)=C(C(N)=O)C(=O)[C@@]2(O)C(O)=C3C(=O)c4c(O)cccc4[C@@](C)(O)[C@H]3C[C@@H]12", "note": "[TE, Tetracycline]", "values": [{"measurement": "Antibiotic Susceptibility testing", "setting": "[1]", "result": "R"}, {"measurement": "MIC", "setting": "[1]; Escherichia coli", "result": 60, "unit": "µM"}, {"measurement": "Antibiotic Susceptibility testing", "setting": "[2]", "result": "R"}, {"measurement": "MIC", "setting": "[2]; Escherichia coli", "result": 2, "unit": "µM"}, {"measurement": "Antibiotic Susceptibility testing", "setting": "[3]", "result": "R"}, {"measurement": "MIC", "setting": "[3]; Escherichia coli", "result": 30, "unit": "µM"}]}
{"molecule": "Co-trimoxazole [COT]", "values": [{"measurement": "Antibiotic Susceptibility testing", "setting": "[1]", "result": "R"}, {"measurement": "MIC", "setting": "[1]", "result": ">240", "unit": "µM"}, {"measurement": "Antibiotic Susceptibility testing", "setting": "[2]", "result": "R"}, {"measurement": "MIC", "setting": "[2]", "result": ">240", "unit": "µM"}, {"measurement": "Antibiotic Susceptibility testing", "setting": "[3]", "result": "R"}, {"measurement": "MIC", "setting": "[3]", "result": ">240", "unit": "µM"}]}
{"molecule": "Colistin sulphate", "values": [{"measurement": "Antibiotic Susceptibility testing", "setting": "[1]", "result": "S"}, {"measurement": "MIC Values, class symbol", "setting": "[1]", "result": "S"}, {"measurement": "Antibiotic Susceptibility testing", "setting": "[2]", "result": "S"}, {"measurement": "MIC Values, class symbol", "setting": "[2]", "result": "S"}, {"measurement": "Antibiotic Susceptibility testing", "setting": "[3]", "result": "S"}, {"measurement": "MIC Values, class symbol", "setting": "[3]", "result": "S"}]}
